{"source": "patent US10591496B2", "about": "“Analyte extraction apparatus and method” (Sphere Medical Limited, priority 2013, dated 2020)", "key": {"[1]": {"experiment": "free and bound Vancomycin fractions by SPE extraction and Gibbs reaction colorimetry", "assay_type": "in vitro ADME", "conditions": "commercially available whole human serum spiked with 29 μM Vancomycin, absorbance at 589 nm, n=3, error = standard deviation", "description": "A 1 ml whole serum sample (WHS) spiked with Vancomycin is applied to a 30 mg/1 ml reversed phase Strata™-X (polystyrene-divinylbenzene-N-vinylpyrrolidone copolymer) SPE column from Phenomenex (Torrance, Calif.). The column is washed firstly with 2 ml water to remove weakly bound impurities. This washing step may be repeated if necessary. Then a known volume (1 ml) of an organic solvent such as, but not limited to, methanol is used to elute the free Vancomycin fraction from the sorbent. This optionally may be followed by another organic washing step, e.g. another washing step with an organic solvent, which may be the same solvent or a different solvent as used in the elution step. The bound Vancomycin fraction is then eluted from the SPE column using a known volume (0.5 ml) of a mixture of one-third water and two-thirds methanol (by volume).\nA 350 μl fraction of each elute is then transferred into separate vials. Then 50 μl of 3.625 mM Gibbs in methanol is added to each vial, followed by 40 μl of 0.4 M sodium hydroxide in borate buffer or water, which initiates the coupling reaction and results in an immediate colour change. After a shake, typically 350 μl of each mixture is transferred into a cuvette and their spectra are measured via a spectrophotometer. […]"}, "[2]": {"conditions": "Zeitlinger et al. 2011, cited from earlier work"}}}
{"compound": "CN[C@H](CC(C)C)C(=O)N[C@H]1C(=O)N[C@@H](CC(N)=O)C(=O)N[C@H]2C(=O)N[C@H]3C(=O)N[C@H](C(=O)N[C@H](C(=O)O)c4cc(O)cc(O)c4-c4cc3ccc4O)[C@H](O)c3ccc(c(Cl)c3)Oc3cc2cc(c3O[C@@H]2O[C@H](CO)[C@@H](O)[C@H](O)[C@H]2O[C@H]2C[C@](C)(N)[C@H](O)[C@H](C)O2)Oc2ccc(cc2Cl)[C@H]1O", "note": "[Vancomycin]", "values": [{"measurement": "percentage of Vancomycin free", "setting": "[1]; methanol elute", "result": "63±12", "unit": "%"}, {"measurement": "percentage of Vancomycin bound", "setting": "[1]; water/methanol (1:2) elute", "result": "37±2", "unit": "%"}, {"measurement": "mean fraction bound", "setting": "[2]; often quoted mean", "result": 55, "unit": "%"}, {"measurement": "protein bound (variation)", "setting": "[2]; range of protein binding", "result": "10-82%"}]}
